Tested on: human skin
Experiment: Human skin contact with acidic solution
Details: solution with a pH of less than 0.5

Q: `O=S(=O)(O)O` [sulfuric acid] was tested. Which “irritation or injury of the hand put into the solution” value did it give?
A: an irritation would occur within a relatively short span of time

Source: US20040171687A1 (priority 2002, published 2004)
